Measured values from the supplement of paper PMC10307832.

How the values were obtained:
[1] = compound: Cn1nnc2c(C(N)=O)ncn2c1=O [Temozolomide] + Cc1cc(Nc2cc(N3CCN(C)CC3)nc(Sc3ccc(NC(=O)C4CC4)cc3)n2)n[nH]1 [Tozasertib] (partner 0.1 µM); assay: relative viability (nuclei count vs DMSO), 5 days (fraction); higher = more cells survive
Summary of the method: (§1)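 Medians of duplicate plates are given as relative viability. That measure is the nuclei count in treated wells divided by the count in vehicle wells. Counts were taken on 4× images of lung cancer cell lines in 1536-well plates, 5 days after pin-tool dosing the day after seeding with one drug alone or a fixed anchor-drug dose plus five library-drug doses (not always all listed) in √10 steps.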

AZD5582 + Foretinib = compound: C[C@@H](C(=O)N[C@@H](C1CCCCC1)C(=O)N2CCC[C@H]2C(=O)N[C@@H]3[C@@H](CC4=CC=CC=C34)OCC#CC#CCO[C@@H]5CC6=CC=CC=C6[C@@H]5NC(=O)[C@@H]7CCCN7C(=O)[C@H](C8CCCCC8)NC(=O)[C@H](C)NC)NC [AZD5582] + COc1cc2c(Oc3ccc(NC(=O)C4(C(=O)Nc5ccc(F)cc5)CC4)cc3F)ccnc2cc1OCCCN1CCOCC1 [Foretinib] (partner 0.25 µM); assay: as above
Summary of the method: as §1

Cell Line	relative viability ([1]; first compound 0.2 µM)	relative viability ([1]; first compound 0.6325 µM)	relative viability ([1]; first compound 2 µM)	relative viability ([1]; first compound 6.325 µM)	relative viability ([1]; first compound 20 µM)	relative viability (AZD5582 + Foretinib; first compound 0.001581 µM)	relative viability (AZD5582 + Foretinib; first compound 0.005 µM)	relative viability (AZD5582 + Foretinib; first compound 0.01581 µM)	relative viability (AZD5582 + Foretinib; first compound 0.05 µM)
SK-LU-1	0.354	0.326	0.335	0.273	0.235	0.794	0.772	0.843	0.472
H3255		0.534	0.613	0.532	0.17	0.868	0.796	0.741	0.772
NCI-H1355	0.583	0.612	0.66	0.548	0.553	0.894	0.881	0.938	0.705
NCI-H661	0.351	0.351	0.352	0.362	0.337	0.954	0.982	1.03	0.98
NCI-H2170		0.75	0.756	0.668	0.405	1.04	1.01	1	1.09
SK-MES-1	1.02	0.919	0.985	0.939	0.973	0.878	1.29	0.967	1.24
EPLC-272H	0.263	0.191	0.232	0.28	0.252	0.0672		0.546	0.0632
NCI-H596	0.978	1.04	0.89	0.769	1.01			1.19	0.279
201T	1.01	0.888	0.987	0.943	0.914	1.09	1.43	1.12	1.45
LU99A	0.259	0.262	0.275	0.259	0.303	0.871	0.948	0.886	1.03
CAL-12T	0.335	0.339	0.347	0.34	0.382	0.821	0.772	1.06	0.732
NCI-H2126	0.767	0.864	0.909	0.782	0.87	1.15	1.19	1.05	0.969
BEN	0.465	0.5	0.415	0.526	0.436	0.634	0.751	0.627	0.415
NCI-H2405	0.716	0.722	0.791	0.72	0.776	1	1.07	0.987	1.06
NCI-H727	0.54	0.629	0.764	0.591	0.531	0.867	1.03	1.01	0.825
NCI-H2023	0.427	0.361	0.344	0.359	0.403	0.805	0.851	0.802	0.804
A549						0.821	1.13	0.938	1.14
COR-L23	0.2	0.213	0.227	0.206	0.198	0.963	0.887	0.87	1.1
EMC-BAC-2	0.326	0.309	0.274	0.255	0.314	0.867	0.809	1.02	0.412

Cell Line	relative viability ([1]; first compound 0.2 µM)	relative viability ([1]; first compound 0.6325 µM)	relative viability ([1]; first compound 2 µM)	relative viability ([1]; first compound 6.325 µM)	relative viability ([1]; first compound 20 µM)	relative viability (AZD5582 + Foretinib; first compound 0.001581 µM)	relative viability (AZD5582 + Foretinib; first compound 0.005 µM)	relative viability (AZD5582 + Foretinib; first compound 0.01581 µM)	relative viability (AZD5582 + Foretinib; first compound 0.05 µM)
A-427	0.201	0.206	0.219	0.152	0.157	0.986	0.881	1.09	0.769
Calu-6						0.695	0.523	0.826	0.437
NCI-H2009	0.821	0.722	0.766	0.762	0.735	1.22	1.28	1.19	1.29
NCI-H358	0.0983	0.101	0.104	0.106	0.115	0.684	0.938	0.779	0.626
NCI-H522	0.449	0.586	0.56	0.538	0.595				
NCI-H1563						0.897	0.958	0.894	0.924
NCI-H23	0.4	0.337	0.35	0.381	0.249	0.762	0.872	0.787	0.952
NCI-H2085	0.735	0.784	0.86	0.817	0.855	1.06	0.776	0.924	0.698
NCI-H1755	0.579	0.549	0.58	0.594	0.528	0.939	0.98	0.846	1
NCI-H1666	0.594	0.589	0.631	0.531	0.5	0.786	1.02	0.953	0.907
IA-LM						0.96	0.938	1.21	0.994
UMC-11	0.204	0.198	0.214	0.198	0.191	0.995	1.12	1.03	1.05
HCC-78	0.282	0.487	0.497	0.493	0.425	0.537	0.624	0.548	0.62
NCI-H1944	0.241	0.273	0.327	0.284	0.257	0.8	0.976	0.93	1.05
NCI-H2342	0.49	0.57	0.492	0.598	0.346	1.04	1.11	1.07	1.27
NCI-H1651	0.716	0.779	0.674	0.684	0.684	0.714	0.883		1.16
NCI-H2347	0.496	0.552	0.579	0.544	0.576	0.688	0.736	0.557	0.794
HOP-62	0.534	0.418	0.367	0.376	0.348	1.01	1.11	1.06	1.05
NCI-H1993	0.566	0.618	0.616	0.577	0.639	0.792	0.786	0.854	0.715
